Laboratory results as given in PubChem BioAssay AID2060896 (Molecular Pharmacology Branch, DTP, NCI, 2025).

Tested on: 941728-121-R-J1-PDC complex spheroid viability
Assay: Anticancer human tumor 941728-121-R-J1-PDC patient-derived lung adenocarcinoma cell line growth inhibition [RAS]
Conditions: for IC50: curve of first compound; for viability, T/C: stronger effect = lower value
Method in brief: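 Tumour cells grown as complex spheroids with HUVEC endothelial cells and mesenchymal stem cells, treated with RAS pathway inhibitor combinations. Each agent spans half-log steps from near clinical Cmax, or 10 microM where Cmax is unknown.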
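Note: spheroids exposed to compounds for 7 days before readout.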
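Throughout, for viability, T/C: 100% = DMSO vehicle control viability.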

In the case of `CCc1c2c(nc3ccc(O)cc13)-c1cc3c(c(=O)n1C2)COC(=O)[C@]3(O)CC` + C=CC(=O)N1CCN(c2nc(OCC3CCCN3C)nc3c(F)c(-c4nc(N)cc(C)c4C(F)(F)F)c(Cl)cc23)C(C)C1, the IC50 (second compound 0.00316 µM) is reported as < 0.949 nM, the IC50 (second compound 0.01 µM) is reported as < 0.949 nM and the IC50 (second compound 0.0316 µM) is reported as < 0.949 nM. The IC50 (second compound 0.1 µM) was < 0.949 nM, the IC50 (second compound 0.316 µM) was < 0.949 nM and the IC50 (second compound 1 µM) was < 0.949 nM. For the same molecule, the viability, T/C (second compound 0.00316 µM, first compound 0.000949 µM) was 21.6%, the viability, T/C (second compound 0.00316 µM, first compound 0.003 µM) was 18.7% and the viability, T/C (second compound 0.00316 µM, first compound 0.00949 µM) was 14.7%. For the same molecule, the viability, T/C (second compound 0.00316 µM, first compound 0.03 µM) was 13.7%, the viability, T/C (second compound 0.00316 µM, first compound 0.0949 µM) was 12.1% and the viability, T/C (second compound 0.00316 µM, first compound 0.3 µM) was 8.13%. The viability, T/C (second compound 0.01 µM, first compound 0.000949 µM) was 18.9%, the viability, T/C (second compound 0.01 µM, first compound 0.003 µM) was 15.6% and the viability, T/C (second compound 0.01 µM, first compound 0.00949 µM) was 20.6%. For the same molecule, the viability, T/C (second compound 0.01 µM, first compound 0.03 µM) was 13.1%, the viability, T/C (second compound 0.01 µM, first compound 0.0949 µM) was 11.4% and the viability, T/C (second compound 0.01 µM, first compound 0.3 µM) was 7.95%. It also gave a viability, T/C (second compound 0.0316 µM, first compound 0.000949 µM) of 18.3%, a viability, T/C (second compound 0.0316 µM, first compound 0.003 µM) of 16.5% and a viability, T/C (second compound 0.0316 µM, first compound 0.00949 µM) of 13.8%. The viability, T/C (second compound 0.0316 µM, first compound 0.03 µM) was 15.1%, the viability, T/C (second compound 0.0316 µM, first compound 0.0949 µM) was 11.7% and the viability, T/C (second compound 0.0316 µM, first compound 0.3 µM) was 7.67%. It also gave a viability, T/C (second compound 0.1 µM, first compound 0.000949 µM) of 16.3%, a viability, T/C (second compound 0.1 µM, first compound 0.003 µM) of 17% and a viability, T/C (second compound 0.1 µM, first compound 0.00949 µM) of 15.1%. It also gave a viability, T/C (second compound 0.1 µM, first compound 0.03 µM) of 12.6%, a viability, T/C (second compound 0.1 µM, first compound 0.0949 µM) of 12.4% and a viability, T/C (second compound 0.1 µM, first compound 0.3 µM) of 8.11%. The viability, T/C (second compound 0.316 µM, first compound 0.000949 µM) was 18.3%, the viability, T/C (second compound 0.316 µM, first compound 0.003 µM) was 15.8% and the viability, T/C (second compound 0.316 µM, first compound 0.00949 µM) was 13.7%. For the same molecule, the viability, T/C (second compound 0.316 µM, first compound 0.03 µM) was 12.2%, the viability, T/C (second compound 0.316 µM, first compound 0.0949 µM) was 11.7% and the viability, T/C (second compound 0.316 µM, first compound 0.3 µM) was 6.82%. For the same molecule, the viability, T/C (second compound 1 µM, first compound 0.000949 µM) was 17.1%, the viability, T/C (second compound 1 µM, first compound 0.003 µM) was 15.4% and the viability, T/C (second compound 1 µM, first compound 0.00949 µM) was 13.8%. The viability, T/C (second compound 1 µM, first compound 0.03 µM) was 13.7%, the viability, T/C (second compound 1 µM, first compound 0.0949 µM) was 14.8% and the viability, T/C (second compound 1 µM, first compound 0.3 µM) was 7.83%.
For `Nc1ccn(C2OC(CO)C(O)C2(F)F)c(=O)n1` (centres undefined) + C=CC(=O)N1CCN(c2nc(OCC3CCCN3C)nc3c(F)c(-c4nc(N)cc(C)c4C(F)(F)F)c(Cl)cc23)C(C)C1, the IC50 (second compound 0.00316 µM) was < 3.16 nM, the IC50 (second compound 0.01 µM) was < 3.16 nM and the IC50 (second compound 0.0316 µM) was < 3.16 nM. The IC50 (second compound 0.1 µM) was < 3.16 nM, the IC50 (second compound 0.316 µM) was < 3.16 nM and the IC50 (second compound 1 µM) was < 3.16 nM. The viability, T/C (second compound 0.00316 µM, first compound 0.00316 µM) was 17.8%, the viability, T/C (second compound 0.00316 µM, first compound 0.01 µM) was 14.8% and the viability, T/C (second compound 0.00316 µM, first compound 0.0316 µM) was 15.2%. For the same molecule, the viability, T/C (second compound 0.00316 µM, first compound 0.1 µM) was 14%, the viability, T/C (second compound 0.00316 µM, first compound 0.316 µM) was 15.9% and the viability, T/C (second compound 0.00316 µM, first compound 1 µM) was 15.6%. For the same molecule, the viability, T/C (second compound 0.01 µM, first compound 0.00316 µM) was 17.7%, the viability, T/C (second compound 0.01 µM, first compound 0.01 µM) was 14.7% and the viability, T/C (second compound 0.01 µM, first compound 0.0316 µM) was 16.3%. For the same molecule, the viability, T/C (second compound 0.01 µM, first compound 0.1 µM) was 16.2%, the viability, T/C (second compound 0.01 µM, first compound 0.316 µM) was 14.5% and the viability, T/C (second compound 0.01 µM, first compound 1 µM) was 13.3%. It also gave a viability, T/C (second compound 0.0316 µM, first compound 0.00316 µM) of 14.9%, a viability, T/C (second compound 0.0316 µM, first compound 0.01 µM) of 15.6% and a viability, T/C (second compound 0.0316 µM, first compound 0.0316 µM) of 15.7%. It also gave a viability, T/C (second compound 0.0316 µM, first compound 0.1 µM) of 13.3%, a viability, T/C (second compound 0.0316 µM, first compound 0.316 µM) of 14.9% and a viability, T/C (second compound 0.0316 µM, first compound 1 µM) of 15.2%. The viability, T/C (second compound 0.1 µM, first compound 0.00316 µM) was 16.9%, the viability, T/C (second compound 0.1 µM, first compound 0.01 µM) was 13.9% and the viability, T/C (second compound 0.1 µM, first compound 0.0316 µM) was 15.4%. For the same molecule, the viability, T/C (second compound 0.1 µM, first compound 0.1 µM) was 14.1%, the viability, T/C (second compound 0.1 µM, first compound 0.316 µM) was 12.1% and the viability, T/C (second compound 0.1 µM, first compound 1 µM) was 12.6%. The viability, T/C (second compound 0.316 µM, first compound 0.00316 µM) was 16.4%, the viability, T/C (second compound 0.316 µM, first compound 0.01 µM) was 16.1% and the viability, T/C (second compound 0.316 µM, first compound 0.0316 µM) was 15.9%. It also gave a viability, T/C (second compound 0.316 µM, first compound 0.1 µM) of 14.3%, a viability, T/C (second compound 0.316 µM, first compound 0.316 µM) of 15.8% and a viability, T/C (second compound 0.316 µM, first compound 1 µM) of 13.8%. The viability, T/C (second compound 1 µM, first compound 0.00316 µM) was 18.9%, the viability, T/C (second compound 1 µM, first compound 0.01 µM) was 15.8% and the viability, T/C (second compound 1 µM, first compound 0.0316 µM) was 15.8%. The viability, T/C (second compound 1 µM, first compound 0.1 µM) was 16.6%, the viability, T/C (second compound 1 µM, first compound 0.316 µM) was 14% and the viability, T/C (second compound 1 µM, first compound 1 µM) was 12.6%.
